Structures are written as SMILES.

The target in the first assay is T1, human orexin type 2 receptor (hOX2R) (Homo sapiens, UniProt O43614).
T1 construct: expressed in transfected cells
T1 sequence (O43614 1-444): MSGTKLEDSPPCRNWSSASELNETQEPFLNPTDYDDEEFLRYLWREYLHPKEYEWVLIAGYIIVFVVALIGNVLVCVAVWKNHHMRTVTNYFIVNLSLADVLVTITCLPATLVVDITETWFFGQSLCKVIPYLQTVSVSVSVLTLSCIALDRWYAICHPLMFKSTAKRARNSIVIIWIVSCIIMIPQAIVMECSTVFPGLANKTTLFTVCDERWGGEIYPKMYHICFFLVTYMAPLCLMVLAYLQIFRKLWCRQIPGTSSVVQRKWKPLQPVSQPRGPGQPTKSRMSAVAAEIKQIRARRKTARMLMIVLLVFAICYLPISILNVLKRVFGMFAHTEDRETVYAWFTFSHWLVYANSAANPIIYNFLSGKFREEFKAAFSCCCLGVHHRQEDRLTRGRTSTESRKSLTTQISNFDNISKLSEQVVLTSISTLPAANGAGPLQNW
Put plainly: Orexin type 2 receptor agonist activity, intracellular Ca2+ (FLIPR TETRA). Type of assay: cell-based. The conditions noted are these: CHO cells expressing hOX2R; Ca2+ fluorescence area. The procedure:
Stable cell line generation. Obtainment of cells stably expressing either human orexin type 2 or human orexin type 1 receptor; to obtain a stable cell line the Orexin receptor cDNA was inserted into pcDNA3.1(+) plasmid vector and clones identified by G418 drug resistance selection. […] A single clone for OX2R-CHO and OX1R-CHO were grown in bulk and frozen to generate a cell bank for routine screening.
Measurement of orexin type 2 receptor agonist activity. Chinese hamster ovary (CHO) cells expressing human orexin type 2 receptor (hOX2R) or human orexin type 1 receptor (hOX1R) were seeded in each well of 384 well black clear bottom plates (BD Flacon) at 10,000 cells per well and cultured for 24 hr in an Ham's F12 (Gibco) medium containing 10% fetal calf serum (Sigma Aldrich) under the conditions of 37° C., 5% CO2. After removal of the medium, 50 μl of assay buffer 1 (0.1% bovine serum albumin (Sigma Aldrich), 20 mM HEPES (Molecular Dimensions), […] probenecid (Sigma Aldrich), 1× Calcium 5 dye (Molecular Devices) in Hank's balanced salt solution (Invitrogen)) was added, and the cells were incubated for 60 min under the conditions of 37° C., 5% CO2. A test compound was dissolved in dimethyl sulfoxide (Sigma Aldrich) to 10 mM, and then diluted with assay buffer 2 (20 mM HEPES, Hank's balanced salt solution, 0.1% bovine serum albumin). For the reaction, a test compound solution (10 μl) was added using Fluorescent Imaging Plate Reader TETRA (FLIPR TETRA: manufactured by Molecular Devices), a fluorescence value (excitation wavelength 488 nm, measurement wavelength 570 nm) of each well was measured every one second for 2 min, and the agonist activity was determined using the area of the fluorescence value as an indicator of intracellular Ca^2+ concentration. The agonist activity of the test compound was calculated assuming that the fluorescence value of the well added with only the dilution buffer was 0% and the fluorescence value of the well added with 10 nM human orexin A (Tocris) buffer was 100%. As used herein, Emax indicates the value at 10 μM concentration when orexin A is converted to a full agonist (maximum value of agonist activity: 100%).
Take `CCS(=O)(=O)NC1CCN2C(=O)NCCCCCOc3ccccc3-c3cccc(c3)CC12` (stereo not drawn) [Compound A1-23, N-(5-oxo-12-oxa-6-aza-4(2,1)-pyrrolidina-1(1,2),2(1,3)-dibenzenacyclo-dodecaphane-43-yl)ethanesulfonamide]: the “hOx2 pEC50” value is listed as “+ (6.0≤“+”<7.0)”.
Same read-out and setting: as for `CCS(=O)(=O)NC1CCN2C(=O)OCCOc3ccccc3-c3cccc(c3)CC12` (stereo not drawn) [Compound A1-22, N-(5-oxo-6,9-dioxa-4(2,1)-pyrrolidina-1(1,2),2(1.3)-dibenzenacyclo-nonaphane-4^3-yl)ethanesulfonamide], the entry is “++ (7.0≤“++”<8.0)”.

The assay is the same for the next values; noted with them: CHO cells expressing hOX2R; Ca2+ fluorescence area; read-out: hOx2 pEC50 (converted).
Consider `CS(=O)(=O)NC1CCCN2C(=O)CCCCc3ccccc3-c3cccc(c3)CC12` (racemic) [Compound A1-1, N-(5-oxo-4(2,1)-piperidina-1(1,2),2(1,3)-dibenzenacyclononaphane-4^3-yl)-methanesulfonamide], for which the EC50 was 100 to 1000 nM.
On the same count and under the same terms, as for `CS(=O)(=O)N[C@@H]1CCCN2C(=O)NCCOc3ccccc3-c3cccc(c3)C[C@H]12` [Compound A1-3, N-((4^2R,4^3R)-5-oxo-9-oxa-6-aza-4(2,1)-piperidina-1(1,2),2(1,3)-dibenzenacyclo-nonaphane-4^3-yl)methanesulfonamide], the figure is 1 to 10 nM.
On the same count and under the same terms, as for `CS(=O)(=O)NC1CCCN2C(=O)NCCOc3ccccc3-c3cccc(c3)CC12` (racemic) [Compound A1-15, N-(5-oxo-9-oxa-6-aza-4(2,1)-piperidina-1(1,2),2(1,3)-dibenzenacyclo-nonaphane-4^3-yl)methanesulfonamide], the figure is 1 to 10 nM; as for `O=C1CCOc2ccccc2-c2cccc(c2)C[C@H]2[C@@H](NS(=O)(=O)CF)CCCN12` [Compound A1-80], 1 to 10 nM; as for `CN(C)S(=O)(=O)N[C@H]1CCCN2C(=O)CCCc3ccccc3-c3cccc(c3)C[C@@H]12` [Compound A1-79], 1 to 10 nM.
Still for that read-out and setting: as for `CCS(=O)(=O)NC1CCN2C(=O)CC/C=C/Cc3ccccc3-c3cccc(c3)CC12` (racemic) [Compound A1-53, (E/Z)—N-(5-oxo-4(2,1)-pyrrolidina-1(1,2),2(1,3)-dibenzenacyclodecaphan-8-en-4^3-yl)ethanesulfonamide], the figure is 10 to 100 nM; as for `CS(=O)(=O)NC1CCCN2C(=O)CCCc3ccccc3-c3cccc(c3)CC12` (stereo not drawn) [Compound A1-59], 10 to 100 nM.
For `CCS(=O)(=O)N[C@H]1CCCN2C(=O)CCOc3ccccc3-c3cccc(c3F)C[C@@H]12` [Compound A1-100], the EC50 was 1 to 10 nM.
Still for that read-out and setting: as for `CCS(=O)(=O)NC1CCN2C(=O)CCCCCCc3ccccc3-c3cccc(c3)CC12` (racemic) [Compound A1-39, N-(5-oxo-4(2,1)-pyrrolidina-1(1,2),2(1,3)-dibenzenacycloundecaphane-4^3-yl)ethanesulfonamide], the figure is 1 to 10 nM.
Same read-out and setting: as for `CN1CCOc2ccccc2-c2cccc(c2)CC2C(NS(C)(=O)=O)CCCN2C1=O` (racemic) [Compound A1-2, N-(6-methyl-5-oxo-9-oxa-6-aza-4(2,1)-piperidina-1(1,2),2(1,3)-dibenzena-cyclo-nonaphane-4^3-yl)methanesulfonamide], the figure is 100 to 1000 nM; as for `CS(=O)(=O)NC1CCCN2C(=O)NCCCCCc3ccccc3-c3cccc(c3)CC12` (racemic) [Compound A1-27, N-(5-oxo-6-aza-4(2,1)-piperidina-1(1,2),2(1.3)-dibenzenacyclo-undecaphane-4^3-yl)methanesulfonamide], 1 to 10 nM; as for `CN(C)S(=O)(=O)N[C@H]1CCCN2C(=O)CCOc3ccccc3-c3cccc(c3)C[C@@H]12` [Compound A1-76, N-((4^2S,4^3S)-5-oxo-8-oxa-4(2,1)-piperidina-1(1,2),2(1,3)-dibenzenacyclooctaphane-4^3-yl)-N,N-dimethylsulfuric diamide], 1 to 10 nM.
Take `CCS(=O)(=O)NC1CCN2C(=O)NC/C=C/Cc3ccccc3-c3cccc(c3)CC12` (racemic) [Compound A1-51, (E/Z)—N-(5-oxo-6-aza-4(2,1)-pyrrolidina-1(1,2),2(1.3)-dibenzenacyclo-decaphan-8-en4^3-yl)ethanesulfonamide]: the EC50 is 10 to 100 nM.
The same measure, in the same setting: as for `O=C1CCOc2ccccc2-c2cc(ccc2F)C[C@H]2[C@@H](NS(=O)(=O)CF)CCCN12` [Compound A1-87, 1-fluoro-N-((4^2S,4^3S)-26-fluoro-5-oxo-8-oxa-4(2,1)-piperidina-1(1,2),2(1,3)-dibenzenacyclooctaphane-4^3-yl)methanesulfonamide], the figure is 1 to 10 nM; as for `CS(=O)(=O)NC1CCCN2C(=O)CCCCCCc3ccccc3-c3cccc(c3)CC12` (racemic) [Compound A1-28, N-(5-oxo-4(2,1)-piperidina-1(1,2),2(1,3)-dibenzenacycloundecaphane-4^3-yl)methanesulfonamide], 10 to 100 nM.
Regarding `CS(=O)(=O)NC1CCN2C(=O)N3CC(CCc4ccccc4-c4cccc(c4)CC12)C3` (racemic) [Compound A1-13, N-(5-oxo-4-(2,1)-pyrrolidina-6-(1.3)-azetidina-1-(1,2),2-(1,3)-dibenzena-cyclooctaphane-4^3-yl)methanesulfonamide], the EC50 is 10 to 100 nM.
The same measure, in the same setting: as for `CS(=O)(=O)N[C@H]1CCCN2C(=O)CCCOc3ccccc3-c3cccc(c3)C[C@@H]12` [Compound A1-64], the figure is 10 to 100 nM; as for `CN1CCOc2ccccc2-c2cccc(c2)C[C@H]2[C@@H](NS(=O)(=O)N(C)C)[C@@H](F)CN2C1=O` [Compound A1-81], 1 to 10 nM; as for `C[C@H]1COc2ccccc2-c2cccc(c2)C[C@H]2[C@@H](NS(C)(=O)=O)CCCN2C1=O` [Compound A1-85], 10 to 100 nM.
In the case of `CCS(=O)(=O)NC1CCN2C(=O)OCC/C=C\Cc3ccccc3-c3cccc(c3)CC12` (racemic) [Compound A1-56, (E/Z)—N-(5-oxo-6-oxa-4(2,1)-pyrrolidina-1(1,2),2(1,3)-dibenzenacyclo-undecaphan-9-en-4^3-yl)ethanesulfonamide], the EC50 is 100 to 1000 nM.
As for `CS(=O)(=O)N[C@H]1CCCN2C(=O)CCOc3ccccc3-c3cccc(c3)C[C@@H]12` [Compound A1-68], the EC50 was 10 to 100 nM.
Still for that read-out and setting: as for `CCS(=O)(=O)NC1CCN2C(=O)NCCOc3ccccc3-c3cccc(c3)CC12` (racemic) [Compound A1-30, N-(5-oxo-9-oxa-6-aza-4(2,1)-pyrrolidina-1(1,2),2(1,3)-dibenzenacyclo-nonaphane-4^3-yl)ethanesulfonamide], the figure is 10 to 100 nM.
On the same count and under the same terms, as for `CCS(=O)(=O)N[C@@H]1CCN2C(=O)NCCCCCc3ccccc3-c3cccc(c3)C[C@H]12` (single isomer, unassigned) [Compound A1-43, N-((4^2R,4^3R)-5-oxo-6-aza-4(2,1)-pyrrolidina-1(1,2),2(1,3)-dibenzenacycloundecaphane-4^3-yl)ethanesulfonamide], the figure is 100 to 1000 nM; as for `CCS(=O)(=O)NC1CCN2C(=O)NCCCCCc3c(F)cc(F)cc3-c3cccc(c3)CC12` (racemic) [Compound A1-16, N-(1^3,1^5-difluoro-5-oxo-6-aza-4(2,1)-pyrrolidina-1-(1,2),2-(1,3)-dibenzena-cycloundecaphane-4^3-yl)ethanesulfonamide], 10 to 100 nM; as for `O=C1CCOc2ccccc2-c2cccc(c2)C[C@H]2[C@@H](NS(=O)(=O)C3CC3)CCCN12` [Compound A1-84], 0.1 to 1 nM.

Source of the values: patent publication US20230331720A1, “MEDIUM- OR MACRO-CYCLIC BENZYL-SUBSTITUTED HETEROCYCLE DERIVATIVES AND THEIR USES AS OREXIN-2 RECEPTOR AGONISTS” (Orexia Therapeutics Limited, priority 2020, published 2023).
